Drawing on patent US20100041646A1, “Phenylene-Bis-Oxazolidine Derivatives and Their Use as Anticoagulants” (BAYER HEALTHCARE AG, priority 2005, published 2010), this text covers IC50 for three compounds.

What is called IC50 is the concentration needed to halve the response being measured. High values mean weaker potency in that assay, low ones greater potency in that assay.

Sequence of human factor Xa (FXa) (P00742 235-488 limits assumed): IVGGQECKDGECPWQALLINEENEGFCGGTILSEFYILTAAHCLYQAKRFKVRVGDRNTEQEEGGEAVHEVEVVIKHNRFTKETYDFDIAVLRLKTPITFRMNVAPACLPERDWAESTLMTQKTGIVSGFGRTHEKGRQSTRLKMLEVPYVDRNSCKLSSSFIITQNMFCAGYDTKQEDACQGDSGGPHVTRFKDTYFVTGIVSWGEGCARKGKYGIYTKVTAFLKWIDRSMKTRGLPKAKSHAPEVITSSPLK
Sequence of human factor Xa (FXa) (P00742 41-179 partner limits assumed): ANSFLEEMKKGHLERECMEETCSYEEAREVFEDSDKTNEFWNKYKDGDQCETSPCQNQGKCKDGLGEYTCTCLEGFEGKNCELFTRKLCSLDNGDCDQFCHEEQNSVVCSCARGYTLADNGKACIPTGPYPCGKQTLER

For the test, the target named is human factor Xa (FXa) (Homo sapiens, UniProt P00742). As to the kind of experiment: Determination of the factor Xa inhibition (chromogenic substrate). In kind it is biochemical. The following applies: human FXa 0.5 nmol/l, 150 μmol/l Pefachrome FXa, 25° C., extinction at 405 nm. As for the experimental part: The enzymatic inhibition of human factor Xa (FXa) is measured using the conversion of a chromogenic substrate specific for FXa. Factor Xa cleaves p-nitroaniline from the chromogenic substrate. The determinations are carried out in microtiter plates as follows:
The test substances, in various concentrations, are dissolved in DMSO and incubated for 10 minutes at 25° C. with human FXa (0.5 nmol/l dissolved in 50 mmol/l of Tris buffer [C,C,C-tris(hydroxymethyl)aminomethane], 150 mmol/l of NaCl, 0.1% BSA [bovine serum albumin], pH 20=8.3). Pure DMSO is used as control. The chromogenic substrate (150 μmol/l Pefachrome® FXa from Pentapharm) is then added. After an incubation time of 20 minutes at 25° C., the extinction at 405 nm is determined.
Take `N=C1OCCN1c1ccc(N2C[C@H](CNC(=O)c3ccc(Cl)s3)OC2=O)cc1` [Example 1, 5-Chloro-N-({(5S)-3-[4-(2-imino-1,3-oxazolidin-3-yl)phenyl]-2-oxo-1,3-oxazolidin-5-yl}methyl)thiophene-2-carboxamide]: the midpoint of inhibition, the IC50, lay at 1.1 nM.
In the case of `N=C1OCCCN1c1ccc(N2C[C@H](CNC(=O)c3ccc(Cl)s3)OC2=O)cc1` [Example 5, 5-Chloro-N-({(5S)-3-[4-(2-imino-1,3-oxazinan-3-yl)phenyl]-2-oxo-1,3-oxazolidin-5-yl}methyl)thiophene-2-carboxamide methanesulfonate], half-maximal inhibition (IC50) required 3.1 nM. This IC50 lies about 2.8-fold higher than the previous one.
The figure for `N#CN=C1OCCN1c1ccc(N2C[C@H](CNC(=O)c3ccc(Cl)s3)OC2=O)cc1` [Example 6, 5-Chloro-N-[((5S)-3-{4-[2-(cyanoimino)-1,3-oxazolidin-3-yl]phenyl}-2-oxo-1,3-oxazolidin-5-yl)methyl]thiophene-2-carboxamide] is 16 nM.
